The record followed here is PubChem BioAssay (NCI).

The structures appear in SMILES notation. “And” between values parts separate entries of the source, which are not always exact repeats. Identical values can stand only once.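 Cells were grown in 96-well plates and exposed to each compound for 48 hours at five concentrations; endpoints were interpolated linearly between bracketing concentrations, or set to the highest concentration if not reached. At the GI50, growth is halved. TGI: total growth inhibition.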

Among the test systems are NCI-H226 lung; OVCAR-3 ovarian; SK-MEL-28 melanoma; HS 578T breast; DU-145 prostate; CCRF-CEM leukemia; MALME-3M melanoma; MCF7 breast; NCI-H522 lung; U251 CNS.
Test in all cases: DTP human tumour cell line panel, 48 h

The GI50 is the concentration at which growth is held to half of that of the control. What is called TGI is the concentration giving total growth inhibition. With `CC(SC(C)C(=O)N/N=C/c1cccc(Cl)c1)C(=O)N/N=C\c1cccc(Cl)c1` (centres undefined), the GI50 is 17.5 µM with NCI-H226 lung; 2030 nM with OVCAR-3 ovarian; 15200 nM in the experiment on SK-MEL-28 melanoma; 5620 nM with HS 578T breast; 6.58 µM in the experiment on DU-145 prostate; 5770 nM in the experiment on CCRF-CEM leukemia. In addition, the GI50 in the experiment on MALME-3M melanoma is 13.9 µM; with MCF7 breast, 5160 nM; with NCI-H522 lung, 3.57 µM; with U251 CNS, 3740 nM. In addition, the TGI is 43.1 µM in the experiment with NCI-H226 lung; 3.81 µM with OVCAR-3 ovarian; 34.4 µM in the experiment on SK-MEL-28 melanoma; 25.4 µM with HS 578T breast; 25.2 µM in the experiment with DU-145 prostate; 52.3 µM in the experiment with CCRF-CEM leukemia. Also, the TGI with MALME-3M melanoma turned out to be 35.7 µM; in the experiment with MCF7 breast, 18.6 µM; in the experiment with NCI-H522 lung, 11.6 µM; with U251 CNS, 15.1 µM.

`CCn1c(-c2cc(OC)cc(OC)c2)nc2c1C(=O)c1ccccc1C2=O`: the TGI with NCI-H226 lung, with OVCAR-3 ovarian, in the experiment on SK-MEL-28 melanoma, with HS 578T breast, in the experiment with DU-145 prostate and in the experiment with CCRF-CEM leukemia was greater than 100 µM each time. Moreover, the TGI in the experiment on MALME-3M melanoma is greater than 100 µM; with MCF7 breast it was greater than 100 µM; in the experiment on NCI-H522 lung it was 87.9 µM; in the experiment with U251 CNS, greater than 100 µM.

With `O=c1n(CC2CO2)c(=O)n(CC2CO2)c(=O)n1CC1CO1` (centres undefined), the GI50 with NCI-H226 lung is 22.6 µM and 10.9 µM; in the experiment with OVCAR-3 ovarian, 20600 nM and 13100 nM; in the experiment with SK-MEL-28 melanoma it was 22700 nM; in the experiment on HS 578T breast, 21600 nM; in the experiment with DU-145 prostate, 11 µM and 3.22 µM; with CCRF-CEM leukemia, 6050 nM and 2920 nM. In addition, the GI50 is 17.1 µM and 43.2 µM in the experiment on MALME-3M melanoma; 3900 nM and 1890 nM in the experiment on MCF7 breast; 11.2 µM and 3.9 µM with NCI-H522 lung; 5470 nM in the experiment with U251 CNS. For the same compound, the TGI in the experiment with NCI-H226 lung is 78.3 µM and 103 µM and 45.9 µM; in the experiment on OVCAR-3 ovarian it was 108 µM and 40.2 µM; in the experiment on SK-MEL-28 melanoma, 139 µM and > 100 µM; in the experiment on HS 578T breast it was 188 µM and > 100 µM; with DU-145 prostate, 66.2 µM and 127 µM and 37.3 µM; in the experiment with CCRF-CEM leukemia it was 223 µM and > 100 µM. For the same compound, the TGI with MALME-3M melanoma was 44.3 µM and 70.2 µM and > 100 µM; with MCF7 breast, 85.7 µM and > 100 µM; with NCI-H522 lung, 28 µM and 45.8 µM and 22.9 µM; with U251 CNS, 32.4 µM and 67.2 µM and 32.2 µM.

On to `CC(C)(C)C(=O)OCOP(=O)(OCOC(=O)C(C)(C)C)C1CCCN(O)C1=O` (centres undefined), for which the GI50 is 0.996 µM in the experiment with NCI-H226 lung; 559 nM in the experiment on OVCAR-3 ovarian; 321 nM in the experiment with SK-MEL-28 melanoma; 314 nM with HS 578T breast; 0.831 µM in the experiment with DU-145 prostate; 185 nM with CCRF-CEM leukemia. Besides, the GI50 in the experiment on MALME-3M melanoma is 0.425 µM; in the experiment on MCF7 breast, 338 nM; in the experiment on NCI-H522 lung it was 0.308 µM; with U251 CNS, 342 nM. Also, the TGI with NCI-H226 lung is 9.62 µM; in the experiment on OVCAR-3 ovarian, greater than 100 µM; in the experiment with SK-MEL-28 melanoma, 1.14 µM; in the experiment with HS 578T breast, 8.27 µM; with DU-145 prostate, greater than 100 µM; with CCRF-CEM leukemia, 2.3 µM. The TGI worked out at 5.81 µM in the experiment on MALME-3M melanoma, 3.86 µM in the experiment with MCF7 breast, 1.83 µM in the experiment on NCI-H522 lung and 5.22 µM with U251 CNS.

As for `C[As](C)SC1OC(CO)C(O)C1O` (centres undefined), the GI50 with NCI-H226 lung is 1.18 µM; with OVCAR-3 ovarian, 62.3 nM; in the experiment on SK-MEL-28 melanoma it was 522 nM; with HS 578T breast, 968 nM; in the experiment on DU-145 prostate, 0.189 µM; in the experiment with CCRF-CEM leukemia, 259 nM. The 50% growth inhibitory concentration (GI50) was 0.0847 µM in the experiment with MALME-3M melanoma, 324 nM with MCF7 breast, 0.167 µM with NCI-H522 lung and 709 nM in the experiment on U251 CNS. For the same compound, the TGI came to 5.21 µM in the experiment on NCI-H226 lung; 0.203 µM in the experiment with OVCAR-3 ovarian; 5.45 µM with SK-MEL-28 melanoma; 7.59 µM in the experiment on HS 578T breast; 0.799 µM with DU-145 prostate; 1.13 µM in the experiment with CCRF-CEM leukemia. Besides, the TGI with MALME-3M melanoma was determined as 0.65 µM; with MCF7 breast, 1.3 µM; with NCI-H522 lung, 0.477 µM; in the experiment with U251 CNS, 3.2 µM.

As for `O=S(=O)([O-])c1ccc2c(c1)-c1nc-2nc2[n-]c(nc3nc(nc4[n-]c(n1)c1ccc(S(=O)(=O)[O-])cc41)-c1cc(S(=O)(=O)[O-])ccc1-3)c1ccc(S(=O)(=O)[O-])cc21.[Cu+2].[Na+]`, the GI50 is greater than 100 µM in the experiment on NCI-H226 lung; greater than 28300 nM in the experiment with OVCAR-3 ovarian; greater than 100000 nM in the experiment with SK-MEL-28 melanoma; greater than 100000 nM with HS 578T breast; greater than 100 µM in the experiment on DU-145 prostate; 580 nM in the experiment with CCRF-CEM leukemia. In addition, the GI50 with MALME-3M melanoma is greater than 100 µM; with MCF7 breast it was greater than 100000 nM; in the experiment with NCI-H522 lung it was 44.8 µM; in the experiment with U251 CNS it was 40300 nM. The TGI in the experiment with NCI-H226 lung was greater than 100 µM; in the experiment on OVCAR-3 ovarian it was greater than 100 µM; in the experiment on SK-MEL-28 melanoma, greater than 100 µM; in the experiment on HS 578T breast, greater than 100 µM; with DU-145 prostate it was greater than 100 µM; in the experiment on CCRF-CEM leukemia, greater than 39.5 µM. For the same compound, the TGI with MALME-3M melanoma, with MCF7 breast, in the experiment on NCI-H522 lung and in the experiment on U251 CNS was greater than 100 µM each time.

On to `CC(C)(C)OC(=O)NCC(O)CNC(=O)OC(C)(C)C`, for which the TGI in the experiment with NCI-H226 lung, in the experiment with OVCAR-3 ovarian, in the experiment with SK-MEL-28 melanoma, in the experiment on HS 578T breast, with DU-145 prostate and in the experiment with CCRF-CEM leukemia was greater than 100 µM each time. Also, the TGI in the experiment on MALME-3M melanoma, with MCF7 breast, in the experiment with NCI-H522 lung and in the experiment with U251 CNS was greater than 100 µM in each case.

Turning to `CC1OC2CC(=O)OC2C2=C1C(=O)c1c(O)cccc1C2=O` (centres undefined), the GI50 with NCI-H226 lung was 0.454 µM; with OVCAR-3 ovarian it was 29.7 nM; with SK-MEL-28 melanoma it was 54.8 nM; in the experiment on HS 578T breast, 261 nM; in the experiment with DU-145 prostate, 0.15 µM; in the experiment on CCRF-CEM leukemia, 26.9 nM. Also, the GI50 in the experiment on MALME-3M melanoma is 0.0235 µM; with MCF7 breast it was 18.3 nM; with NCI-H522 lung, less than 0.0168 µM; in the experiment with U251 CNS, 167 nM. Moreover, the TGI amounted to 0.929 µM in the experiment on NCI-H226 lung; 0.0851 µM with OVCAR-3 ovarian; 0.191 µM in the experiment with SK-MEL-28 melanoma; 0.284 µM in the experiment with DU-145 prostate; 0.501 µM in the experiment with CCRF-CEM leukemia; 0.0695 µM with MALME-3M melanoma. Also, the TGI in the experiment on MCF7 breast came out at 0.0581 µM; in the experiment with NCI-H522 lung, 0.0402 µM; in the experiment with U251 CNS it was 0.492 µM.
